pIC50: −log10 of the molar value.
Columns and labels:
Type in all cases: cell-based
human TLR7 = target: T1, human TLR7 (Homo sapiens, UniProt Q9NYK1); assay: TLR7 inhibition reporter assay (HEK-Blue cells, SEAP reporter, gardiquimod stimulation); conditions: HEK-Blue cells overexpressing human TLR7, SEAP reporter, gardiquimod 7.5 μM
T1 construct: host or cells: HEK-Blue cells
T1 sequence (Q9NYK1 27-1049): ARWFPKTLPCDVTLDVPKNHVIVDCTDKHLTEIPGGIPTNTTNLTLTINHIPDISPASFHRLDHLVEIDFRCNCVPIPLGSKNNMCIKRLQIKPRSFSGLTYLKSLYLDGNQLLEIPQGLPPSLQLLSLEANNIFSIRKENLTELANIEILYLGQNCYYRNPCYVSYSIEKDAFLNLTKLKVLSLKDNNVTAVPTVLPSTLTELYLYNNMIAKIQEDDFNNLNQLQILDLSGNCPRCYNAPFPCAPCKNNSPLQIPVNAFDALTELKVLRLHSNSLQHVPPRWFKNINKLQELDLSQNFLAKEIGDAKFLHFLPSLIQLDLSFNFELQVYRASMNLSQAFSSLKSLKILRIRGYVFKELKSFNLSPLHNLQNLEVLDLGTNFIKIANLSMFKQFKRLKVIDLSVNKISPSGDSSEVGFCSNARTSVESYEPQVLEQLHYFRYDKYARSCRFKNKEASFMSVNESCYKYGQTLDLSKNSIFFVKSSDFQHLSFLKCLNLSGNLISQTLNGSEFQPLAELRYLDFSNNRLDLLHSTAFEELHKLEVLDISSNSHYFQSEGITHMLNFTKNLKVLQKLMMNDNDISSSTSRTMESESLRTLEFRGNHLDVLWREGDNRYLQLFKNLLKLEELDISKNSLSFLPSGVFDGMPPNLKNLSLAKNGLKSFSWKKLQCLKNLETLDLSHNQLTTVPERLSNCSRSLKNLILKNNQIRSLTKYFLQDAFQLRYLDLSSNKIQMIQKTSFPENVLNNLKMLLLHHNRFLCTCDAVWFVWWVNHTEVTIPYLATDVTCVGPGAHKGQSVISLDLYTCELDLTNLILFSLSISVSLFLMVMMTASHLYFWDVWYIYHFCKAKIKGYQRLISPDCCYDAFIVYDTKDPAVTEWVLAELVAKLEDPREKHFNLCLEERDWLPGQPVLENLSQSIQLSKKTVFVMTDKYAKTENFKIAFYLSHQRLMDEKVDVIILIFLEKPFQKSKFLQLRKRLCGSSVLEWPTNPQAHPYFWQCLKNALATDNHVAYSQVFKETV
Summary of the method: (§1)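 Percent inhibition of agonist-induced SEAP, set between agonist+DMSO wells and known-inhibitor wells, after 22 h at 37° C. Compounds (0.05 nM-50 μM final) were added 30 min at room temperature before ligand: gardiquimod 7.5 μM for TLR7, R848 15.9 μM for TLR8, ODN2006 5 nM for TLR9. Human receptors overexpressed in HEK-Blue reporter cells.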

human TLR8 = target: T2, human TLR8 (Homo sapiens, UniProt Q9NR97); assay: TLR8 inhibition reporter assay (HEK-Blue cells, SEAP reporter, R848 stimulation); conditions: HEK-Blue cells overexpressing human TLR8, SEAP reporter, R848 15.9 μM
T2 construct: host or cells: HEK-Blue cells
T2 sequence (Q9NR97 27-1041): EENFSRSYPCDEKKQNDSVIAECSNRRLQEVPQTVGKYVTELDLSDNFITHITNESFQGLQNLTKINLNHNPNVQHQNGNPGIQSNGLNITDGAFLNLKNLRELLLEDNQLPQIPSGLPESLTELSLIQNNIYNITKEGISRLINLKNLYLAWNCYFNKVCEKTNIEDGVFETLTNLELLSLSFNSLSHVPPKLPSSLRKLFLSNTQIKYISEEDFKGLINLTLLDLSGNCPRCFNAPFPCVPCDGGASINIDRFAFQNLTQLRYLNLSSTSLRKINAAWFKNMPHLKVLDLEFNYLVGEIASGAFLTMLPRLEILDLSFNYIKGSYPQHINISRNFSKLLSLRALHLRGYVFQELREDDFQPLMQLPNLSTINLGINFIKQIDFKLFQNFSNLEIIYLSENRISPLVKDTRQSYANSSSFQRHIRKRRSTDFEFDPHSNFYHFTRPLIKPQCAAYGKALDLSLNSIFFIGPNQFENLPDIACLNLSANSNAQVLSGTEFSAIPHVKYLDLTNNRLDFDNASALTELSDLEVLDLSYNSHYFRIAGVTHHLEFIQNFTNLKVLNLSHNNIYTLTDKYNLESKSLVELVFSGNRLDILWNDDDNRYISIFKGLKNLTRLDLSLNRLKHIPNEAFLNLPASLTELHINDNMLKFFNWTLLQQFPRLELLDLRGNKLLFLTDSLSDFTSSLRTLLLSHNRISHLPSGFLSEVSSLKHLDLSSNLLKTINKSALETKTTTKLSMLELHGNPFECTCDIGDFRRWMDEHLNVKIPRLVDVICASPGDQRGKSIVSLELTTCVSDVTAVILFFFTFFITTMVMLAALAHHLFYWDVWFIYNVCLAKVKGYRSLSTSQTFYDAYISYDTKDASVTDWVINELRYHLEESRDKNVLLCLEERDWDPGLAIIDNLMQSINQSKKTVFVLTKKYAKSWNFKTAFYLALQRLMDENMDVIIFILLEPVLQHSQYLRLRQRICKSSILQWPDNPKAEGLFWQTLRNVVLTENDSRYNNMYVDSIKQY
Summary of the method: as §1

human TLR9 = target: T3, human TLR9 (Homo sapiens, UniProt Q9NR96); assay: TLR9 inhibition reporter assay (HEK-Blue cells, SEAP reporter, ODN2006 stimulation); conditions: HEK-Blue cells overexpressing human TLR9, SEAP reporter, ODN2006 5 nM
T3 construct: host or cells: HEK-Blue cells
T3 sequence (Q9NR96 26-1032): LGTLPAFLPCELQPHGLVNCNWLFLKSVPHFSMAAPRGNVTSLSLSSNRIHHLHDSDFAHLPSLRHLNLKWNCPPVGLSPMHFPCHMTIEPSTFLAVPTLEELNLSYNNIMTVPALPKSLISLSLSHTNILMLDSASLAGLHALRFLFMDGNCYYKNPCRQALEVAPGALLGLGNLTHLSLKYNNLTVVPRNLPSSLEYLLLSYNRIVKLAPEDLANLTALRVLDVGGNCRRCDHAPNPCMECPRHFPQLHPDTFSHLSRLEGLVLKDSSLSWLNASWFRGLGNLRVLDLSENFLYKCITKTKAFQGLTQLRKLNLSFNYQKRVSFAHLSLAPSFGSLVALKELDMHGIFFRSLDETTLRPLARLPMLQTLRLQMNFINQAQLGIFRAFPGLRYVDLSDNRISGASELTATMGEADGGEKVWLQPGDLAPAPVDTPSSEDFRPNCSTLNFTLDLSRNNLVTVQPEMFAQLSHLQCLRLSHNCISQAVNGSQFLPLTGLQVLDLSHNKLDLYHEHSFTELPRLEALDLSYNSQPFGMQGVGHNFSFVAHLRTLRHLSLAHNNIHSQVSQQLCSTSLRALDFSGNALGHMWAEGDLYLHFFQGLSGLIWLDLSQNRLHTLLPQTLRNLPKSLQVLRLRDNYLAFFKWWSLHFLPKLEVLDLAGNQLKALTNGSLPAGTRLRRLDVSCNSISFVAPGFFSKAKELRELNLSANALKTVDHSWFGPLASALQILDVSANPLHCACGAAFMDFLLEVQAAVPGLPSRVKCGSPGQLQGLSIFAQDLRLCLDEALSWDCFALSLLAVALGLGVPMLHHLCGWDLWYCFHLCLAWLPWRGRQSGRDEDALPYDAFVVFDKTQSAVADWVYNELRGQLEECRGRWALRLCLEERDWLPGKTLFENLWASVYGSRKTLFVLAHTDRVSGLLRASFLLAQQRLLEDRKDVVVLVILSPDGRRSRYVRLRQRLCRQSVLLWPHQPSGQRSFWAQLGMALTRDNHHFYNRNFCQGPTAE
Summary of the method: as §1

Compound | pIC50 (human TLR7) | pIC50 (human TLR8) | pIC50 (human TLR9)
COc1cc(-c2[nH]nc(-c3ccc(C4CCN(CC(N)=O)CC4)cc3)c2C(C)C)cn2ncnc12 [compound 322] | 7.80 | 8.33 | 4.45
Cc1cc(-c2[nH]nc(-c3ccc(C4CN(C(=O)CN(C)C)C4)cc3)c2C(C)C)cn2ncnc12 [Example 334, 2-(dimethylamino)-1-(3-(4-(4-isopropyl-5-(8-methyl-[1,2,4]triazolo[1,5-a]pyridin-6-yl)-1H-pyrazol-3-yl)phenyl)azetidin-1-yl)ethan-1-one] | 7.87 | 8.50 | 5.32
CCN1CCC(c2ccc(-c3n[nH]c(-c4cc(C)c5ncnn5c4)c3C(C)C)nc2)CC1 [Example 366] | < 5.51 | < 5.51 | 5.20
Cc1cc(-c2[nH]nc(-c3cn4c(n3)CNCC4)c2C(C)C)cn2ncnc12 [Example 219] | 6.20 | 6.15 | 4.33
CCC(C)N1CCC(NC(=O)c2n[nH]c(-c3cc(C)c4ncnn4c3)c2C(C)C)CC1 (stereo not drawn) [Example 152] | 7.86 | 7.50 | 4.68
Cc1cc(-c2[nH]nc(-c3ccc(C4CCN(C(C)C)CC4)cc3)c2C(C)C)cn2ncnc12 [Example 307, 6-(4-isopropyl-3-(4-(1-isopropylpiperidin-4-yl)phenyl)-1H-pyrazol-5-yl)-8-methyl-[1,2,4]triazolo[1,5-a]pyridine] | 6.93 | 8.03 | < 4.30
Cc1cc(-c2[nH]nc(-c3ncc(C4CCN(C(C)C(C)C)CC4)cn3)c2C(C)C)cn2ncnc12 (stereo not drawn) [Example 372] | 7.97 | 8.60 | 5.05
COc1cc(-c2[nH]nc(-c3cnc(C4CCN(C(C)C)CC4)cn3)c2C(C)C)cn2ncnc12 [Example 384] | 7.40 | 7.70 | < 4.30
Cc1cc(-c2[nH]nc(C3CCC(N4CCN(C)CC4)CC3)c2C(C)C)cn2ncnc12 (single isomer, unassigned) [Example 287] | 7.88 | 9.27 | 4.54
CCC(CC)N1CCC(c2cnc(-c3n[nH]c(-c4cc(OC)c5ncnn5c4)c3C(C)C)cn2)CC1 [Example 386] | 7.99 | 8.45 | 5.02
COc1cc(-c2[nH]nc(C(=O)NCC(C)(C)N3CCOCC3)c2C(C)C)cn2ncnc12 [Example 26] | 6.35 | 6.38 | 5.14

These reach a higher pIC50 (human TLR7). Values come first.

pIC50 (human TLR7) | pIC50 (human TLR8) | pIC50 (human TLR9) | Compound
8.49 | 8.25 | 5.01 | CNC(=O)CN1CCC(NC(=O)c2n[nH]c(-c3cc(C)c4ncnn4c3)c2C(C)C)CC1 [compound 177]
8.53 | 9.51 | 4.68 | Cc1cc(-c2[nH]nc(C3CCN(C(C)C)CC3)c2C(C)C)cn2ncnc12 [compound 207]
8.51 | 8.56 | 4.36 | Cc1cc(-c2[nH]nc(C(=O)N(C)CCC#N)c2C(C)C)cn2ncnc12 [Example 16]
8.31 | 8.82 | 4.36 | Cc1cc(-c2[nH]nc(-c3cnc4c(c3)CNCC4)c2C(C)C)cn2ncnc12 [Example 230]
8.33 | 7.36 | < 4.30 | Cc1cc(-c2[nH]nc(C(=O)N[C@H]3CC[C@H](N(C)C)CC3)c2C(C)C)cn2ncnc12 [Example 82]
8.79 | 7.84 | 4.64 | Cc1cc(-c2[nH]nc(C(=O)N[C@H]3CCCN(CC4=NC(C)N=N4)C3)c2C(C)C)cn2ncnc12 (stereo partly drawn) [Example 165]
8.43 | 7.64 | 5.32 | CCC(CC)CN[C@H]1CC[C@@H](NC(=O)c2n[nH]c(-c3cc(C)c4ncnn4c3)c2C(C)C)CC1 [Example 101]
8.63 | 8.63 | 5.01 | CCN1CCC(c2cnc(-c3n[nH]c(-c4cc(OC)c5ncnn5c4)c3C(C)C)cn2)CC1 [Example 382]
8.08 | 8.82 | 4.94 | CCCN1CC(c2ccc(-c3n[nH]c(-c4cc(OC)c5ncnn5c4)c3C(C)C)cc2)C1 [Example 330]
8.81 | 9.37 | 5.13 | Cc1cc(-c2[nH]nc(C3CCC(N(C)CC(=O)N(C)C)CC3)c2C(C)C)cn2ncnc12 (stereo not drawn) [Example 298, 2-((4-(4-isopropyl-5-(8-methyl-[1,2,4]triazolo[1,5-a]pyridin-6-yl)-1H-pyrazol-3-yl)cyclohexyl)(methyl)amino)-N,N-dimethylacetamide]
9.05 | 9.43 | 5.04 | Cc1cc(-c2[nH]nc(C(=O)NC3CCNCC3)c2CC(F)(F)F)cn2ncnc12 [compound 194]
8.27 | 8.22 | 5.27 | Cc1cc(-c2[nH]nc(-c3cncc(N(C)C)c3)c2C(C)C)cn2ncnc12 [Example 238]
8.62 | 8.28 | 5.23 | Cc1cc(-c2[nH]nc(-c3cc4n(n3)CCNC4)c2C(C)C)cn2ncnc12 [Example 217]
